Data reported in US20010049373A1, “Materials and methods for killing nematodes and nematode eggs” (priority 2000, published 2001).

Tests used:
C. elegans = C. elegans nematode activity assay, 2-fold dilutions from 140 μM, visual evaluation at Day 4 (Example 3); assay type: in vivo; parameters: key: Dead: only stiff L1s (no movement); Dead (L4): worms are dead, but at a later larval stage; majority of worms are L1 (based on size); majority of worms are L2 (based on size); majority of worms are L3 (based on size); majority of worms are L4 (based on size); AD: majority of worms are adult; #AD: 5 adult worms or less; B!: sterile (0-25 progeny); B: low broodsize (25-100 progeny); ˜B: moderate broodsize (100-250 progeny); <: reduced broodsize (250-500 progeny); OK: no effect (˜1000+ progeny)
[1] = tested on: Colorado potato beetle, potato tuberworm, beet armyworm, diamondback moth, gypsy moth, and the European corn borer; conditions: cited from earlier work
tomatoes or cucumbers = conditions: rates of up to 10 kg/ha; cited from earlier work
[2] = tested on: root-knot nematode, Meloidogyne incognita; conditions: cited from earlier work
Caenorhabditis elegans [3] = experiment: C. elegans L1 larvae dose-response, 5 day visual viability score (Examples 2 and 7); assay type: in vivo; parameters: key: Dead: only stiff L1s (no movement); Dead (L4): worms are dead, but at a later larval stage; majority of worms are L1 (based on size); majority of worms are L2 (based on size); majority of worms are L3 (based on size); majority of worms are L4 (based on size); AD: majority of worms are adult; #AD: 5 adult worms or less; B!: sterile (0-25 progeny); B: low broodsize (25-100 progeny); ˜B: moderate broodsize (100-250 progeny); <: reduced broodsize (250-500 progeny); OK: no effect (˜1000+ progeny); conditions: day 5, Table 3
How it was run: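 Twenty L1 larvae per well in NGM with E. coli HB101 were exposed to six 3-fold dilutions from 70 μM to 0.3 μM, 1.4% DMSO final, at 20° C. Day-5 viability was scored visually under a dissecting microscope by developmental stage, adult count and brood size.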

Caenorhabditis elegans [4] = experiment: HTS runs (initial and follow-up): mOD, % Run and visual score (Table 3); assay type: in vivo
Description: The nematicidal activity of anthelmintic Compositions 48-118 were determined in accordance with the procedure outlined in Example 2.

Row | Compound | visual evaluation of viability (C. elegans; 1.09 μM) | visual evaluation of viability (C. elegans; 2.2 μM) | visual evaluation of viability (C. elegans; 4.4 μM) | visual evaluation of viability (C. elegans; 8.8 μM) | visual evaluation of viability (C. elegans; 17.5 μM) | visual evaluation of viability (C. elegans; 35 μM) | visual evaluation of viability (C. elegans; 140 μM) | other results
1 | Cc1ccc2c(Cl)cc(Cl)c(O)c2n1 [AKC 141] | OK (no effect (˜1000+ progeny)) | OK (no effect (˜1000+ progeny)) | OK (no effect (˜1000+ progeny)) | OK (no effect (˜1000+ progeny)) | < (reduced broodsize (250-500 progeny)) | L1 | L1 | visual evaluation of viability (C. elegans; 70 μM): L1
2 | Avermectin B1 | – | – | – | – | – | – | – | effect on insect pests [1]: effective
3 | O=C(NCC1CCN(C(=O)NCCC(c2ccccc2)c2ccccc2)CC1)c1ccc(F)cc1F [AKC 117] | OK (no effect (˜1000+ progeny)) | OK (no effect (˜1000+ progeny)) | < (reduced broodsize (250-500 progeny)) | B (low broodsize (25-100 progeny)) | B! (sterile (0-25 progeny)) | L3 | – | –
4 | NCc1ccc(-c2ccccc2)cc1 [AKC 138] | OK (no effect (˜1000+ progeny)) | OK (no effect (˜1000+ progeny)) | OK (no effect (˜1000+ progeny)) | ˜B (moderate broodsize (100-250 progeny)) | L2 | L1 | L1 | visual evaluation of viability (C. elegans; 70 μM): L1
5 | O=C(NCC1CCN(C(=O)NCCC(c2ccccc2)c2ccccc2)CC1)c1cc(F)cc(F)c1 [AKC 118] | OK (no effect (˜1000+ progeny)) | OK (no effect (˜1000+ progeny)) | ˜B (moderate broodsize (100-250 progeny)) | B (low broodsize (25-100 progeny)) | L4/AD/B! | L3 | L2 | –
6 | CC[C@H](C)[C@H]1O[C@]2(CC(O)[C@@H]1C)C[C@@H]1C[C@@H](C/C=C(\C)[C@@H](OC3CC(OC)C(OC4CC(OC)C(O)C(C)O4)C(C)O3)[C@@H](C)/C=C/C=C3\CO[C@@H]4[C@H](O)C(C)=C[C@@H](C(=O)O1)[C@]34O)O2 (some centres unmarked) [Avermectin B2a] | – | – | – | – | – | – | – | toxicity to tomatoes or cucumbers (tomatoes or cucumbers): not toxic; activity against the root-knot nematode ([2]; Meloidogyne incognita): active; potency relative to commercial contact nematicides ([2]; incorporated into soil at 0.16-0.25 kg/ha): 10-30 times
7 | O=C(NCC1CCN(C(=O)NCCC(c2ccccc2)c2ccccc2)CC1)c1cc(F)c(F)cc1F [AKC 116] | OK (no effect (˜1000+ progeny)) | OK (no effect (˜1000+ progeny)) | OK (no effect (˜1000+ progeny)) | B (low broodsize (25-100 progeny)) | B! (sterile (0-25 progeny)) | L3 | – | –
8 | Fc1ccc(Oc2cc(NCc3cc(F)cc(F)c3)ncn2)cc1 [AKC 369] | – | – | – | – | – | – | – | 5 Day Visual Score V6 (Caenorhabditis elegans [3]; 0.3 μM (procedure of Example 2)): OK (no effect (˜1000+ progeny)); 5 Day Visual Score V5 (Caenorhabditis elegans [3]; 0.9 μM (procedure of Example 2)): OK (no effect (˜1000+ progeny)); 5 Day Visual Score V4 (Caenorhabditis elegans [3]; 2.6 μM (procedure of Example 2)): OK (no effect (˜1000+ progeny)); 5 Day Visual Score V3 (Caenorhabditis elegans [3]; 7.8 μM (procedure of Example 2)): < (reduced broodsize (250-500 progeny)); 5 Day Visual Score V1 (Caenorhabditis elegans [3]; 70 μM (procedure of Example 2)): Dead; Follow-up HTS Run % Run (Caenorhabditis elegans [4]; Follow-up HTS Run): 94%; Follow-up HTS Run Visual Score (Caenorhabditis elegans [4]; Follow-up HTS Run): B (low broodsize (25-100 progeny)); Follow-up HTS Run mOD (Caenorhabditis elegans [4]; Follow-up HTS Run): 127 mOD; Initial HTS Run % Run (Caenorhabditis elegans [4]; Initial HTS Run): 115%; Initial HTS Run Visual Score (Caenorhabditis elegans [4]; Initial HTS Run): 1AD/B; Initial HTS Run mOD (Caenorhabditis elegans [4]; Initial HTS Run): 225 mOD
